In publication PMC7733796 (Proceedings of the National Academy of Sciences of the …, 2020):
Non-standard residues stand in square brackets, D forms with d. Residues, ends and D or L forms follow the SMILES beside them.

What was measured:
CXCR4 [1] = molecular target: T1, CXCR4 (Homo sapiens, UniProt P61073); assay: Ca2+ mobilization; assay type: cell-based; conditions: Sup-T1 cells; for Ca2+ efflux (signaling) with increasing concentrations: Fura-2/AM ratiometric, plate reader, DV1 tested up to 40 µM
hNSCs [2] = assay: Boyden chamber transmigration assay, hNSCs; assay type: cell-based, human; conditions: hNSCs 1x10^5, 8-µm fibronectin-coated transwell, 5 h
CXCR4 [3] = molecular target: T1, CXCR4; assay: Receptor endocytosis analysis; assay type: cell-based; conditions: hNSCs, ligand 4 µg/mL, 37°C
hNSCs [4] = assay: Microarray gene expression and gene ontology analysis of hNSCs; assay type: cell-based, human; conditions: hNSCs vs non-treated control
transplanted hNSCs = assay type: in vivo, mouse; conditions: adult C57BL/6J mice, 2 µl injected into cortex or hippocampus, n=3 per group
[5] = Persistence and pharmacokinetics in mouse brain; assay type: in vivo
activated M1 microglia = assay: Microgliosis and safety after intracerebral injection in adult mice; assay type: in vivo, mouse; conditions: for CD11b+ cells (activated M1 microglia): adult mouse brain after injection, n = 3 mice per condition
CXCR4 [6] = molecular target: T1, CXCR4; conditions: hNSCs preincubated with 10 µM, osmotic pump 24-72 h, analysis 3 d posttransplant
Sup-T1 cells = assay: Boyden chamber chemotaxis assay, Sup-T1 cells; assay type: cell-based, human; conditions: peptide in lower chamber at titrated concentrations, 37°C 2 h
CXCR4 [7] = molecular target: T1, CXCR4; assay: Single-cell [Ca2+]i; assay type: cell-based; conditions: SDV1a 10 µM; at least 11 cells per condition
hNSCs [8] = assay: CyQuant proliferation assay, hNSCs; assay type: cell-based, human; conditions: SDV1a 10 nM, 72 h
ERK1/2, p38-MAPK, IκBα = assay: Western blot of phosphorylation downstream of CXCR4 in hNSCs; assay type: cell-based, human; conditions: hNSC lysates
[9] = system: Sandhoff disease (Hexβ−/−) mice; assay: Sandhoff disease; assay type: in vivo, mouse
[10] = 4-mo-old mice, hiPSC-hNSCs + SDV1a, n = 6

T1 sequence (P61073 whole entry): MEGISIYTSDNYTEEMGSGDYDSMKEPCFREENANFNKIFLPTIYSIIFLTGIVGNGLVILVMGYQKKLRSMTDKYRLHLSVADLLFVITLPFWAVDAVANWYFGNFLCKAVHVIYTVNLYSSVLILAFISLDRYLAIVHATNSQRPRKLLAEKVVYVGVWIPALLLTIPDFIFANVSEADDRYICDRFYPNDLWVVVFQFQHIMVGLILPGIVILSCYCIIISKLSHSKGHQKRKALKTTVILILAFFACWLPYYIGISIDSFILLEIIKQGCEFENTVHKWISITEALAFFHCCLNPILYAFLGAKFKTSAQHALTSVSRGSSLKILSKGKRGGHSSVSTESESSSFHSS

Q: With “C-X-C motif chemokine ligand-12 [CXCL12]” as the compound, how does the “Ca2+ efflux (signaling) with increasing concentrations” value (CXCR4 [1]) read?
A: produced the most intense signaling

Q: What about the “Concentration at which hNSC chemotaxis peaks (bell-shaped dose-response)” value (hNSCs [2]) of the same compound?
A: 0.5 nM

Q: And the “Time after which cell surface CXCR4 starts to rebound” value (CXCR4 [3])?
A: > 45 min

Q: And the “Time to down-regulation of CXCR4 surface expression” value (CXCR4 [3])?
A: ≤ 10 min

Q: What about the “Gene ontology profile induced in hNSCs” value (hNSCs [4]) of the same compound?
A: up-regulation of inflammatory and immune-related processes

Q: And the “Attraction of hNSCs transplanted into the contralateral hippocampus” value (transplanted hNSCs)?
A: drew no hNSCs

Q: What about the “Time by which undetectable in brain after administration” value ([5]; similarly labeled recombinant CXCL12, adult mouse brain) of the same compound?
A: ≤ 2 days

Q: What about the “Persistence of microgliosis postinjection” value (activated M1 microglia; adult mouse brain) of the same compound?
A: 2 wk

Q: And the “CD11b+ cells (activated M1 microglia)” value (activated M1 microglia)?
A: 11.7 ± 2.8 per 0.4 mm^2

Q: For `c1cc(CN2CCCNCCNCCCNCC2)ccc1CN1CCCNCCNCCCNCC1` [AMD3100], which “Effect of CXCR4 inhibition on hNSC migration to SDV1a” value (CXCR4 [6]) is on record?
A: abrogated

Q: Which “Chemotaxis of Sup-T1 cells (upper to lower chamber)” value (Sup-T1 cells) does the source give for “L-(1~8)-SDF1a (KPVSLSYR; UniProt P48061 22-29, looked up, fragment) [S1]” here?
A: elicited no chemotaxis

Q: With D-(1~21)-vMIP-II [DV1] as the compound, how does the “Ca2+ efflux (signaling) with increasing concentrations” value (CXCR4 [1]) read?
A: evoked no signaling

Q: And the “Chemotaxis of Sup-T1 cells (upper to lower chamber)” value (Sup-T1 cells)?
A: elicited no chemotaxis

Q: Which “Signaling intensity (Ca2+ release) relative to CXCL12/SDF1α” value (CXCR4 [1]; Fura-2/AM) does the source give for `CC(C)C[C@H](NC(=O)[C@H](CO)NC(=O)[C@@H](NC(=O)[C@@H]1CCCN1C(=O)[C@@H](N)CCCCN)C(C)C)C(=O)N[C@@H](CO)C(=O)N[C@@H](Cc1ccc(O)cc1)C(=O)N[C@@H](CCCNC(=N)N)C(=O)NCC(=O)NCC(=O)N[C@H](CC(C)C)C(=O)NCC(=O)N[C@H](C)C(=O)N[C@H](CO)C(=O)N[C@H](Cc1c[nH]c2ccccc12)C(=O)N[C@H](Cc1c[nH]cn1)C(=O)N[C@H](CCCNC(=N)N)C(=O)N1CCC[C@@H]1C(=O)N[C@H](CC(=O)O)C(=O)N[C@H](CCCCN)C(=O)N[C@H](CS)C(=O)N[C@H](CS)C(=O)N[C@H](CC(C)C)C(=O)NCC(=O)N[C@H](Cc1ccc(O)cc1)C(=O)N[C@H](CCC(N)=O)C(=O)N[C@H](CCCCN)C(=O)N[C@H](CCCNC(=N)N)C(=O)N1CCC[C@@H]1C(=O)N[C@H](CC(C)C)C(=O)N1CCC[C@@H]1C(N)=O` [SDV1a, L-(1∼8)-SDF1α-GG-D-(1∼21)-vMIP-II] (H-KPVSLSYRGG[dL]G[dA][dS][dW][dH][dR][dP][dD][dK][dC][dC][dL]G[dY][dQ][dK][dR][dP][dL][dP]-NH2; N-terminus assumed) here?
A: an order-of-magnitude less

Q: And the “Change of [Ca2+]i in single hNSCs” value (CXCR4 [7])?
A: increased [Ca^2+]i

Q: And the “Concentration at which hNSC chemotaxis peaks (bell-shaped dose-response)” value (hNSCs [2])?
A: 5 nM

Q: And the “Increase in total DNA content compared to untreated controls” value (hNSCs [8])?
A: 10%

Q: What about the “Phosphorylation of p38-MAPK (Thr180/Tyr182) and IκBα (Ser-32/36)” value (ERK1/2, p38-MAPK, IκBα) of the same compound?
A: phosphorylated

Q: What about the “Time to down-regulation of CXCR4 surface expression” value (CXCR4 [3]) of the same compound?
A: 90 min

Q: And the “Gene ontology profile induced in hNSCs” value (hNSCs [4])?
A: primarily induced genes associated with developmental, homeostatic, and stem cell-related functions

Q: And the “Persistence in brain after injection” value ([5]; FITC- or biotin-tagged SDV1a, adult mouse brain)?
A: 3 wk

Q: And the “Time to dissemination throughout the regions” value ([5]; postinjection, C57BL/6J mice, HPLC-MS/MS)?
A: ≤ 30 min

Q: And the “CD11b+ cells (activated M1 microglia)” value (activated M1 microglia)?
A: 1.1 ± 1.0 per 0.4 mm^2

Q: And the “Systemic or CNS toxicity, behavior” value (activated M1 microglia; mice after intracerebral injection)?
A: no evidence of systemic or CNS toxicity or altered behavior

Q: And the “GM2 ganglioside storage in cortex” value [9, 10]?
A: little GM2 accumulation occurred

Q: What about the “Microgliosis (Iba1) in cortex where donor cells engrafted” value [9, 10] of the same compound?
A: scant

Q: What about the “Hex enzyme levels in CNS parenchyma” value ([9]; hiPSC-hNSC+SDV1a, regions where donor cells were attracted) of the same compound?
A: raised beyond the critical 3 to 5% therapeutic threshold
